Reference: ChEMBL document CHEMBL1201862, “PubChem BioAssay data set” (2004)
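All cell lines were grown in 96-well plates and treated with compound for 48 hours. Abbreviation: GI50, concentration required for 50% inhibition of growth.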 Calls of active or inactive are those of the source. Cut-off read from the data, not from the text of the source: active = GI50 up to about 1.1 µM and inactive = higher.

Tests used:
Assay in all cases: growth of human tumour cells (NCI), 48 h
[1] = tested on: DLD-1
[2] = tested on: LXFL 529
[3] = tested on: XF498
[4] = tested on: M19-MEL
[5] = tested on: RXF 631

Structure (SMILES) | GI50 [1] | GI50 [2] | GI50 [3] | GI50 [4] | GI50 [5]
CC1CCN(c2cc(-c3cc4ccccc4o3)oc(=O)c2C#N)CC1 | > 100 µM (inactive) | > 100 µM (inactive) | > 100 µM (inactive) | – | –
CC(=O)OCc1nnn2c1C(OC(C)=O)CC2 (stereo not given) | > 100 µM (inactive) | > 100 µM (inactive) | > 100 µM (inactive) | > 100 µM (inactive) | > 100 µM (inactive)
CC(=O)Nc1ccc(C(=O)N2N=C(C)/C(=C/c3cccc(O)c3)C2=O)cc1 | > 100 µM (inactive) | – | > 100 µM (inactive) | > 100 µM (inactive) | –
COc1cc2c3cc1Oc1c(O)c(OC)cc4c1C(Cc1ccc(O)c(c1)Oc1ccc(cc1)CC3N(C)CC2)N(C)CC4 (stereo not given) | – | 4.92 µM (inactive) | 19.4 µM (inactive) | 21.7 µM (inactive) | –
c1ccc(N2CCN(CCCN3CCc4c([nH]c5ccccc45)C3c3cccnc3)CC2)cc1 (stereo not given) | 72.8 µM (inactive) | > 74.5 µM (inactive) | 5.04 µM (inactive) | > 92 µM (inactive) | > 55.7 µM (inactive)
O/N=C/c1ncccc1C1OCCO1 | > 100 µM (inactive) | > 100 µM (inactive) | > 100 µM (inactive) | > 100 µM (inactive) | –
COCOc1ccc(OC)cc1 | > 100 µM (inactive) | – | > 100 µM (inactive) | > 100 µM (inactive) | –
CCc1cccc(CC)c1NC1=CC(=O)C(=O)c2ccccc21 | 15.6 µM (inactive) | 19.4 µM (inactive) | – | 4.97 µM (inactive) | 13.8 µM (inactive)
CN(C)c1ccc(C=C2C(=O)OC(C)(C)OC2=O)cc1Br | > 100 µM (inactive) | > 100 µM (inactive) | > 100 µM (inactive) | > 100 µM (inactive) | > 100 µM (inactive)
CC(C)(C)c1cc(Cc2ccc(S(C)(=O)=O)cc2)c(O)c(C(C)(C)C)c1 | 17.5 µM (inactive) | 15.5 µM (inactive) | 15.2 µM (inactive) | 17.1 µM (inactive) | –
O=[N+]([O-])c1cc(C(F)(F)F)cc2c1SC1=Nc3ccccc3CN12 | > 100 µM (inactive) | – | > 100 µM (inactive) | > 100 µM (inactive) | –
O=C1NCCCC12CCCNC2=O | – | > 100 µM (inactive) | > 100 µM (inactive) | > 100 µM (inactive) | –
CCOC(=O)C(C(=O)OCC)c1ccc([N+](=O)[O-])o1 | 4.58 µM (inactive) | 3.6 µM (inactive) | 17.1 µM (inactive) | 17.5 µM (inactive) | –
CCOc1cccc2[s+]snc12 | 43.9 µM (inactive) | 77.4 µM (inactive) | 25.2 µM (inactive) | 56 µM (inactive) | > 100 µM (inactive)
COc1ccc(NC(=O)C(=O)Cc2ccc([N+](=O)[O-])c([N+](=O)[O-])c2CC(=O)C(=O)Nc2ccc(OC)cc2OC)c(OC)c1 | > 100 µM (inactive) | > 100 µM (inactive) | – | 95.9 µM (inactive) | > 100 µM (inactive)
CC(C)COC(=O)N1N=NC2C3CC(=O)C(O3)C21 (stereo not given) | > 100 µM (inactive) | > 100 µM (inactive) | – | > 100 µM (inactive) | > 100 µM (inactive)
C/C(=N\NC(=S)Nc1ccc(C(=O)O)cc1)c1ccccn1 | 27.7 µM (inactive) | 3.05 µM (inactive) | 26.4 µM (inactive) | 20.1 µM (inactive) | –
COC(=O)C1=CC2OC1(C)CCC2=O (stereo not given) | 80.5 µM (inactive) | > 100 µM (inactive) | > 100 µM (inactive) | – | –
N/C(=N/O)N/N=C\c1cc(Cl)cc(Cl)c1O | 7.48 µM (inactive) | – | 0.708 µM (active) | 4.19 µM (inactive) | –
O=C1c2ccccc2-c2cccc3ccc(Cc4ccc5ccccc5c4)c1c23 | > 100 µM (inactive) | – | 30.3 µM (inactive) | > 100 µM (inactive) | > 100 µM (inactive)
CC/C=C\C/C=C\C/C=C\CCCCCCCC(=O)OCC | > 100 µM (inactive) | > 100 µM (inactive) | 30.9 µM (inactive) | > 100 µM (inactive) | –
C#CCOCn1cnc2ncnc(Cl)c21 | > 100 µM (inactive) | > 100 µM (inactive) | > 100 µM (inactive) | > 100 µM (inactive) | > 100 µM (inactive)
CCC1N2CCCCC2[C@@H]2c3[nH]c4ccccc4c3CCN12 (stereo not given in full) | > 100 µM (inactive) | > 100 µM (inactive) | > 100 µM (inactive) | > 100 µM (inactive) | > 100 µM (inactive)
S=P1(Oc2ccccc2)NNP2(=NP(N3CC3)(N3CC3)=NP(N3CC3)(N3CC3)=N2)NN1 (stereo not given) | > 100 µM (inactive) | > 100 µM (inactive) | > 100 µM (inactive) | > 100 µM (inactive) | > 100 µM (inactive)
c1ccc(C2N=C(c3ccccn3)C(c3ccccn3)=NC2c2ccccc2)cc1 (stereo not given) | > 100 µM (inactive) | > 100 µM (inactive) | > 100 µM (inactive) | > 100 µM (inactive) | –
CCOC(=O)Nc1ccc(S(=O)(=O)OC)cc1.CCOC(=O)Nc1ccc(S(=O)(=O)OC)cc1.Cc1cn(C2CC(O)C(CO)O2)c(=O)[nH]c1=O | 45.5 µM (inactive) | > 100 µM (inactive) | – | 49.8 µM (inactive) | > 100 µM (inactive)
CC(C)(C1=NC(C(C)(C)C)CO1)C1=N[C@@H](C(C)(C)C)CO1 (stereo not given in full) | > 100 µM (inactive) | > 100 µM (inactive) | > 100 µM (inactive) | > 100 µM (inactive) | –
N/C(=N\O)N/N=C/c1ccc2c(c1)OCCO2 | 19.7 µM (inactive) | – | 8.79 µM (inactive) | > 33 µM (inactive) | –
